System: Plasmodium berghei
Assay: Luciferase/luciferin-expressing antifolate-resistant parasites were used to infect a culture of HepG2 cells that were pre-incubated with compounds. Infected hepatocytes emit light due to the luciferase reaction. Assay results are presented as the percent inhibition of light emission compared to control. […]
Assay type: functional
Conditions: sporozoite; for IC50: read-out: LUCIFERASE INFECTION ASSAY - IC50; for IC90: read-out: LUCIFERASE INFECTION ASSAY - IC90

| SMILES | IC50 [µM] | IC90 [µM] |
| --- | --- | --- |
| Cc1ccc(-c2nnc(NC(=O)c3cccc(S(=O)(=O)N4CCc5ccccc54)c3)[nH]2)cc1 | 8.49 | > 10 |
| COc1ccc(C(=O)N2CCN(C(c3ccc(F)cc3)c3ccc(F)cc3)CC2)cc1S(=O)(=O)NCCN(C)C | > 10 | > 10 |
| Cc1c(C(=O)Nc2nc(CN3CCCC(C)C3)cs2)oc2ccc(Cl)cc12 (stereo unspecified) | > 10 | > 10 |
| CC(OC(=O)c1ccccc1O)C(N)=O (stereo unspecified) | > 10 | > 10 |
| CCCCNC(=O)CN1CCN(C(=O)Cc2c(C)nc3ccccc3c2C)CC1 | > 10 | > 10 |
| COc1ccc(Cl)cc1NC(=O)C(C)NCC(c1ccccc1)c1c[nH]c2ccccc12 (stereo unspecified) | 6.47 | > 10 |
| CCc1cccc2c(C(=O)CN3CCC(C(=O)Nc4ccc5c(c4)OCO5)CC3)c[nH]c12 | > 10 | > 10 |
| O=C(c1ccc(Cl)cc1)N1CCCC(C(=O)N2CCN(Cc3ccc4c(c3)CCO4)CC2)C1 (stereo unspecified) | > 10 | > 10 |
| CN(CC(=O)N1CCN(C(c2ccc(F)cc2)c2ccc(F)cc2)CC1)C1=NS(=O)(=O)c2ccccc21 | > 10 | > 10 |
| CCn1nc(C(=O)OCC(=O)Nc2cc(S(=O)(=O)N3CCCCC3)ccc2Cl)c2ccccc2c1=O | > 10 | > 10 |
| Cc1nc2sccc2c(=O)n1NC(=O)c1ccc2ccccc2n1 | > 10 | > 10 |
| COc1ccc(N(C)S(=O)(=O)c2cccc(C(=O)Nc3ccc(Br)c(C(F)(F)F)c3)c2)cc1 | > 10 | > 10 |
| Cc1nn(Cc2nc3ccccc3s2)c(C)c1S(=O)(=O)N(C)Cc1ccco1 | > 10 | > 10 |
| COc1ccc2cc(C3(C)NC(=O)N(Cc4nc(N)nc(Nc5ccc(F)cc5)n4)C3=O)ccc2c1 (stereo unspecified) | > 10 | > 10 |
| O=C(Cn1c(=O)ccn(Cc2ccccc2)c1=O)N1CCC(n2c(=O)[nH]c3ccccc32)CC1 | > 10 | > 10 |
| O=C(CN1CCN(C(=O)C23CC4CC(CC(C4)C2)C3)CC1)c1ccc[nH]1 | > 10 | > 10 |
| CCOC(=O)c1cnn(-c2ccc(C(=O)N(Cc3ccc(F)cc3)C3CC3)cc2)c1C | > 10 | > 10 |
| Cc1nn(CC(=O)NC(C)c2cc3ccccc3o2)c(C)c1S(=O)(=O)N1CCc2ccccc21 (stereo unspecified) | > 10 | > 10 |
| O=S(=O)(c1ccc(Br)s1)N(c1ccc2c(c1)OC1(CCCC1)O2)S(=O)(=O)c1ccc(Br)s1 | 4.98 | > 10 |
| CCC(OC(=O)c1cc2ccccc2[nH]1)C(=O)Nc1cc(C)on1 (stereo unspecified) | > 10 | > 10 |

| SMILES | IC50 [µM] | IC90 [µM] |
| --- | --- | --- |
| CCCCC(CC)Cn1c(SCc2nc(N)nc(N)n2)nnc1-c1ccc(Cl)cc1 (stereo unspecified) | > 10 | > 10 |
| O=C(Nc1ccccc1)N1CCC(C(=O)N2CCN(C(=O)c3ccccc3Cl)CC2)CC1 | > 10 | > 10 |
| CCOC(=O)C1=C(CN2CCN(C(c3ccc(F)cc3)c3ccc(F)cc3)CC2)NC(=O)NC1CC (stereo unspecified) | > 10 | > 10 |
| O=C(CSc1nnc(Nc2ccccc2)s1)Nc1ccccc1N1CCCC1 | > 10 | > 10 |
| Cc1cccc2c(=O)n(CC(=O)NCCCCOc3ccc(F)cc3)cnc12 | > 10 | > 10 |
| O=C(Cc1csc(N2CCCC2=O)n1)Nc1nc(-c2ccc3c(c2)CCCC3)cs1 | > 10 | > 10 |
| c1ccc(-c2csc3nc(CN4CCOCC4)nc(NCc4cnn(-c5ccccc5)c4)c23)cc1 | > 10 | > 10 |
| Cc1cc(C)c(CNC(=O)N(C)Cc2cn(-c3ccccc3)nc2-c2ccccc2)c(=O)[nH]1 | > 10 | > 10 |
| O=C(NC1CCS(=O)(=O)c2ccccc21)C1CCN(c2ncc(C(F)(F)F)cc2Cl)CC1 (stereo unspecified) | > 10 | > 10 |
| Cn1c(CNC(=O)c2cc(-c3ccccc3)c(N3CCOCC3)s2)nc2ccccc21 | > 10 | > 10 |
| CCOc1ccc(Oc2ccc(Cl)cc2NCC(=O)N(C)CC(=O)NC(C)C)cc1 | > 10 | > 10 |
| CC(=O)N(c1nc(/C=C2\NC(=S)NC2=O)cs1)c1c(C)cccc1C | 8.24 | > 10 |
| COc1ccc(OC)c(C(C)Nc2ncnc3sccc23)c1 (stereo unspecified) | 4.28 | > 10 |
| CCOc1ccc(-c2nnc(SCC(=O)Nc3ccccc3C(=O)NCc3ccccc3)o2)cc1 | 4.44 | > 10 |
| O=C(NCc1cn2ccccc2n1)c1cccc(S(=O)(=O)N2CCc3ccccc3C2)c1 | > 10 | > 10 |
| COc1ccc(-c2noc(CCCCCNC(=O)c3ccc(-n4cnnn4)cc3)n2)cc1 | > 10 | > 10 |
| Cn1cc(/C=C/C(=O)Nc2nc(-c3ccc4c(c3)OCCO4)cs2)cn1 | 9.99 | > 10 |
| CN(Cc1nc2ccccc2s1)C(=O)c1cc(-c2ccccc2)c(N2CCOCC2)s1 | > 10 | > 10 |
| Cc1cnc(NC(=O)CSCc2cccs2)s1 | > 10 | > 10 |
| Cc1ccc(NC(=S)N/N=C2\C(=O)Nc3c(C)cc(C)cc32)c(C)c1 | 3.03 | 3.68 |

| SMILES | IC50 [µM] | IC90 [µM] |
| --- | --- | --- |
| Cn1cc(Br)cc1C(=O)Nc1ccc2c(c1)OCCO2 | > 10 | > 10 |
| N#Cc1ccc(C=C2C(=O)Nc3ccccc3NC2=O)cc1 | > 10 | > 10 |
| O=C(Nc1nc2c(s1)CCCC2)c1ccc(Nc2ccccc2)c([N+](=O)[O-])c1 | > 10 | > 10 |
| Cc1cc(C)c2c(C)c(C(=O)Nc3cc(S(=O)(=O)N4CCCCC4)ccc3N(C)C)sc2n1 | 6.67 | > 10 |
| COc1ccc(S(=O)(=O)N(C)CC2COc3ccccc3O2)cc1 (stereo unspecified) | > 10 | > 10 |
| Cc1ccc(-c2csc3ncn(CC(=O)c4cc(C)n(C5CCS(=O)(=O)C5)c4C)c(=O)c23)cc1 (stereo unspecified) | > 10 | > 10 |
| CC(=O)Nc1ccccc1OCC(=O)NC(=O)NC(C)C1CC2CCC1C2 (stereo unspecified) | 5.71 | > 10 |
| COC(=O)c1cc(Br)ccc1NC(=O)c1cccc(S(=O)(=O)N(Cc2ccccc2)c2ccccc2Cl)c1 | > 10 | > 10 |
| COc1ccc(-c2cc(C(=O)NNC(=O)CC(C)C)[nH]n2)cc1 | > 10 | > 10 |
| CC(=O)Nc1cccc(C(=O)Nn2cnc3ccccc3c2=O)c1 | > 10 | > 10 |
| Cc1cc2nnc(SC(C)C(=O)Nc3ccc([N+](=O)[O-])cc3C(F)(F)F)n2c2ccccc12 (stereo unspecified) | > 10 | > 10 |
| CC(c1nc(=O)c2c(-c3ccccc3)csc2[nH]1)N(C)Cc1ccccc1N1CCCC1 (stereo unspecified) | > 10 | > 10 |
| O=C(COc1cc(N2CCCC2=O)ccc1[N+](=O)[O-])NCc1ccco1 | > 10 | > 10 |
| COC(=O)c1cc(OC)c(OC)cc1NC(=O)c1ccc(-c2cccc(Br)c2)nc1C | > 10 | > 10 |
| CCN(CC)S(=O)(=O)c1ccc2[nH]c(=O)cc(C(=O)Nc3cc(Cl)c(OC)cc3OC)c2c1 | > 10 | > 10 |
| Cc1nc(SCC(=O)c2ccc(N3CCCC3=O)cc2)c2c(C)c(C)sc2n1 | 7.98 | > 10 |
| O=C(CSc1nncn1C1CC1)Nc1sc2c(c1C(=O)Nc1ccc(Cl)cc1)CCCC2 | > 10 | > 10 |
| CC1(c2ccc3ccccc3c2)NC(=O)N(CC(=O)NC(CN2CCOCC2)c2ccccc2)C1=O (stereo unspecified) | > 10 | > 10 |
